{"source": "patent US20250171423A1", "about": "“PHARMACEUTICAL COMPOUNDS FOR THE TREATMENT OF COMPLEMENT MEDIATED DISORDERS” (Achillion Pharmaceuticals, Inc., priority 2020, published 2025)", "data": [{"tested_on": "not given", "experiment": "not given", "conditions": "from C=CCCCCC/C=C\\c1cc(C(=O)NCC(=O)N2[C@H]3C[C@@]3(COCCCC=C)C[C@H]2C(=O)OCc2ccccc2)ccc1Oc1ccc(F)cc1; rcm bond; Grubbs 1st generation catalyst; DCM; 1.76 mM; 25.0 °C; 48.0 h", "units": {"ring closure, yield of all isomers": "%"}, "values": [{"smiles": "O=C1NCC(=O)N2[C@H]3C[C@@]3(COCCCC=CCCCCC/C=C\\c3cc1ccc3Oc1ccc(F)cc1)C[C@H]2C(=O)OCc1ccccc1", "ring closure, yield of all isomers": 7.8}]}, {"tested_on": "not given", "experiment": "not given", "conditions": "from C=CCCCCCCCCC(=O)N[C@@H](CCOc1ccccc1)C(=O)NCC(=O)N1[C@H]2C[C@@]2(COCCCC=C)C[C@H]1C(=O)OCC; rcm bond; Grubbs 1st catalyst; DCM; 15.3 mM; 28.0 °C; 16.0 h", "units": {"ring closure, yield of all isomers": "%"}, "values": [{"smiles": "CCOC(=O)[C@@H]1C[C@@]23COCCC/C=C/CCCCCCCCC(=O)N[C@@H](CCOc4ccccc4)C(=O)NCC(=O)N1[C@H]2C3", "ring closure, yield of all isomers": 38.8}]}, {"tested_on": "not given", "experiment": "not given", "conditions": "from C=CCCCCCCCCC(=O)N[C@@H](CCOc1ccccc1)C(=O)NCC(=O)N1[C@H]2C[C@@]2(COCCCC=C)C[C@H]1C(=O)OCc1ccccc1; rcm bond; Grubbs 1st catalyst; DCM; 14.0 mM; 28.0 °C; 16.0 h", "units": {"ring closure, yield of all isomers": "%"}, "values": [{"smiles": "O=C1CCCCCCCC/C=C/CCCOC[C@@]23C[C@@H]2N(C(=O)CNC(=O)[C@H](CCOc2ccccc2)N1)[C@H](C(=O)OCc1ccccc1)C3", "ring closure, yield of all isomers": 43.4}]}, {"target": "T1, Human complement C1s enzyme (Homo sapiens, UniProt P09871)", "T1 construct": "purified from human serum, Complement Technology, Inc; purchased Complement Technology, Inc; host or cells: human serum", "T1 sequence (P09871 438-688 limits assumed)": "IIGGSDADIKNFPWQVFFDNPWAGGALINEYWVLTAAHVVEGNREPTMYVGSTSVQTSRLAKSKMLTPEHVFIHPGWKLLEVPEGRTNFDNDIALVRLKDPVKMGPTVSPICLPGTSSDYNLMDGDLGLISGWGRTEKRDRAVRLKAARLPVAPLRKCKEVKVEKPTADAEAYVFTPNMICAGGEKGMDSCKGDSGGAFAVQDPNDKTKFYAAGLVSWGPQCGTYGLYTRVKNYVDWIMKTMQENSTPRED", "T1 sequence (P09871 16-437 partner limits assumed)": "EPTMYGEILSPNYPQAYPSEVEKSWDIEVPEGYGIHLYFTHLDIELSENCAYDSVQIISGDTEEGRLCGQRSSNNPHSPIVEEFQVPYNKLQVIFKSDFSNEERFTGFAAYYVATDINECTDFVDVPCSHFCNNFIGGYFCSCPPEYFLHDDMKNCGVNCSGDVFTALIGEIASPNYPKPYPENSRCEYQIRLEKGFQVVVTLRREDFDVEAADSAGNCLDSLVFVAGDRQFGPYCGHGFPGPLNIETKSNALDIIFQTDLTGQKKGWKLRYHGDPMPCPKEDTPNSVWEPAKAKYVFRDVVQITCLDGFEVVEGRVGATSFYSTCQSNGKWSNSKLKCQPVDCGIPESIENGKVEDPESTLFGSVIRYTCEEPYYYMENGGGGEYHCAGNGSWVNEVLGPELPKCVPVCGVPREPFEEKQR", "experiment": "Human C1s Enzyme Assay", "format": "biochemical", "conditions": "human C1s 1.16 nM, 5 min preincubation, substrate Z-L-Lys-SBzl 100 μM, A405; read-out: C1s Protease Activity", "in_short": "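C1s purified from human serum (1.16 nM final) was preincubated with compound for 5 min at room temperature in 50 mM Tris, 1 M NaCl, pH 7.5. Z-L-Lys-SBzl and DTNB were then added at 100 μM each, and A405 was followed for 30 min. IC50 came from nonlinear regression of reaction rates.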", "units": {"IC50": "µM"}, "values": [{"smiles": "C[C@@]12C[C@@H]1N(C(=O)CNC(=O)CCCOc1cccc3ccccc13)[C@H](C(=O)NCc1cc(C(=N)N)cs1)C2", "note": "[Compound 207, (1S,3S,5S)-N-((4-carbamimidoylthiophen-2-yl)methyl)-5-methyl-2-((4-(naphthalen-1-yloxy)butanoyl)glycyl)-2-azabicyclo[3.1.0]hexane-3-carboxamide]", "IC50": "< 0.1"}, {"smiles": "C/N=C(/NC)c1csc(CNC(=O)[C@@H]2C[C@]3(C)C[C@@H]3N2C(=O)CNC(=O)c2ccc(Oc3ccccc3)cc2)c1", "note": "[Compound 222, (1S,3S,5S)-N-((4-((E)-N,N′-dimethylcarbamimidoyl)thiophen-2-yl)methyl)-5-methyl-2-((4-phenoxybenzoyl)glycyl)-2-azabicyclo[3.1.0]hexane-3-carboxamide]", "IC50": "> 1"}, {"smiles": "C[C@@]12C[C@@H]1N(C(=O)CNC1(c3ccc(Oc4ccccc4)cc3)COC1)[C@H](C(=O)NCc1cc(C(=N)N)cs1)C2", "note": "[Compound 249, (1S,3S,5S)-N-[(4-carbamimidoylthiophen-2-yl)methyl]-5-methyl-2-(2-{[3-(4-phenoxyphenyl)oxetan-3-yl]amino}acetyl)-2-azabicyclo[3.1.0]hexane-3-carboxamide]", "IC50": "< 0.1"}, {"smiles": "CC(C)[C@@H](NC(=O)[C@@H]1CC2(CN1C(=O)CNC(=O)CCCOc1ccccc1)OCCO2)c1cc(C(=N)N)cs1", "note": "[Compound 167, (S)-N-((R)-1-(4-carbamimidoylthiophen-2-yl)-2-methylpropyl)-7-((4-phenoxybutanoyl)glycyl)-1,4-dioxa-7-azaspiro[4.4]nonane-8-carboxamide]", "IC50": "> 1"}, {"smiles": "CS[C@@H]1C[C@@H](C(=O)NCc2cc(C(=N)N)cs2)N(C(=O)CNC(=O)c2ccc(Oc3ccccc3)cc2)C1", "note": "[Compound 45, (2S,4R)-N-((4-carbamimidoylthiophen-2-yl)methyl)-4-(methylthio)-1-((4-phenoxy-benzoyl)glycyl)pyrrolidine-2-carboxamide]", "IC50": "< 0.1"}, {"smiles": "CC(C)O[C@@H]1C[C@@H](C(=O)NCc2cc(C(=N)N)cs2)N(C(=O)CNC(=O)c2ccc(Oc3ccccc3)cc2)C1", "note": "[Compound 138, (2S,4R)-N-((4-carbamimidoylthiophen-2-yl)methyl)-4-isopropoxy-1-((4-phenoxybenzoyl)glycyl)pyrrolidine-2-carboxamide]", "IC50": "< 0.1"}, {"smiles": "N=C(N)c1csc(CNC(=O)[C@@H]2CC[C@@H]3CC[C@H](NC(=O)c4ccc(Oc5ccccc5)cc4)C(=O)N32)c1", "note": "[Compound 211, (3S,6S,8aS)-N-((4-carbamimidoylthiophen-2-yl)methyl)-5-oxo-6-(4-phenoxybenzamido)octahydroindolizine-3-carboxamide]", "IC50": "0.1 to 1"}, {"smiles": "N=C(N)c1csc(CNC(=O)[C@@H]2CC3(CC3)CN2C(=O)CNC(=O)CCCOc2ccccc2)c1", "note": "[Compound 55, (S)-N-((4-carbamimidoylthiophen-2-yl)methyl)-5-((4-phenoxybutanoyl)glycyl)-5-azaspiro[2.4]heptane-6-carboxamide]", "IC50": "< 0.1"}, {"smiles": "C[C@@]12C[C@@H]1N(C(=O)CNC(=O)c1ccc(Oc3ccccc3)cc1)[C@H](C(=O)NS(=O)(=O)c1cc(C(=N)N)cs1)C2", "note": "[Compound 86, (1S,3S,5S)-N-((4-carbamimidoylthiophen-2-yl)sulfonyl)-5-methyl-2-((4-phenoxy-benzoyl)glycyl)-2-azabicyclo[3.1.0]hexane-3-carboxamide]", "IC50": "> 1"}, {"smiles": "N=C(N)c1csc(CNC(=O)[C@@H]2C=CCN2C(=O)CNC(=O)CCCOc2ccc(S(F)(F)(F)(F)F)cc2)c1", "note": "[Compound 95]", "IC50": "0.1 to 1"}, {"smiles": "C[C@@]12C[C@@H]1N(C(=O)CNC(=O)CCOc1ccccc1)[C@H](C(=O)NCc1cc(C(=N)N)cs1)C2", "note": "[Compound 58, (1S,3S,5S)-N-((4-carbamimidoylthiophen-2-yl)methyl)-5-methyl-2-((3-phenoxy-propanoyl)glycyl)-2-azabicyclo[3.1.0]hexane-3-carboxamide]", "IC50": "< 0.1"}, {"smiles": "C[C@@]12C[C@@H]1N(C(=O)CNC(=O)c1cc3cc(Oc4ccccc4)ccc3o1)[C@H](C(=O)NCc1cc(C(=N)N)cs1)C2", "note": "[Compound 132, (1S,3S,5S)-N-((4-carbamimidoylthiophen-2-yl)methyl)-5-methyl-2-((5-phenoxybenzofuran-2-carbonyl)glycyl)-2-azabicyclo[3.1.0]hexane-3-carboxamide]", "IC50": "< 0.1"}, {"smiles": "C[C@@H](NC(=O)[C@@H]1C[C@@H](OC(F)F)CN1C(=O)CNC(=O)CCCOc1ccc(F)cc1)c1cc(C(=N)N)cs1", "note": "[Compound 108, (2S,4R)-N-((R)-1-(4-carbamimidoylthiophen-2-yl)ethyl)-4-(difluoromethoxy)-1-((4-(4-fluorophenoxy)butanoyl)glycyl)pyrrolidine-2-carboxamide]", "IC50": "< 0.1"}, {"smiles": "O=C(NCC(=O)N1CC2(C[C@H]1C(=O)NCc1cc(-c3ncc[nH]3)cs1)OCCO2)c1ccc(Oc2ccccc2)cc1", "note": "[Compound 259, (S)-N-((4-(1H-imidazol-2-yl)thiophen-2-yl)methyl)-7-((4-phenoxybenzoyl)glycyl)-1,4-dioxa-7-azaspiro[4.4]nonane-8-carboxamide]", "IC50": "< 0.1"}, {"smiles": "N=C(N)c1csc(CNC(=O)[C@@H]2[C@H](O)[C@@H](F)CN2C(=O)CNC(=O)CCCOc2ccccc2)c1", "note": "[Compound 128, (2S,3S,4S)-N-((4-carbamimidoylthiophen-2-yl)methyl)-4-fluoro-3-hydroxy-1-((4-phenoxybutanoyl)glycyl)pyrrolidine-2-carboxamide]", "IC50": "< 0.1"}, {"smiles": "CO[C@@H]1C[C@@H](C(=O)NCc2cc(C(=N)N)cs2)N(C(=O)CNC(=O)CCCOc2ccccc2)C1", "note": "[Compound 27, (2S,4R)-N-((4-carbamimidoylthiophen-2-yl)methyl)-4-methoxy-1-((4-phenoxy-butanoyl)glycyl)pyrrolidine-2-carboxamide]", "IC50": "< 0.1"}, {"smiles": "C[C@@]12C[C@@H]1N(C(=O)CNC(=O)c1ccc(Oc3ccc(C(F)(F)F)cc3)cc1)[C@H](C(=O)NCc1cc(C(=N)N)cs1)C2", "note": "[Compound 92, (1S,3S,5S)-N-((4-carbamimidoylthiophen-2-yl)methyl)-5-methyl-2-((4-(4-(trifluoro-methyl)phenoxy)benzoyl)glycyl)-2-azabicyclo[3.1.0]hexane-3-carboxamide]", "IC50": "0.1 to 1"}]}]}
